Measurements reported in patent publication US9403830B2, “Inhibitors of leukotriene production” (Boehringer Ingelheim International GmbH, priority 2012, dated 2016).

What was measured:
human LTA4 hydrolase = molecular target: T1, human LTA4 hydrolase (Homo sapiens, UniProt P09960); assay: LTA4H Enzyme assay (peptidase, Arg-AMC cleavage); type: biochemical; settings: LTA4H enzyme 1 nM, Arg-AMC substrate 50 μM, room temperature 1 h, fluorescence 380/460 nm
T1 sequence (P09960 1-611): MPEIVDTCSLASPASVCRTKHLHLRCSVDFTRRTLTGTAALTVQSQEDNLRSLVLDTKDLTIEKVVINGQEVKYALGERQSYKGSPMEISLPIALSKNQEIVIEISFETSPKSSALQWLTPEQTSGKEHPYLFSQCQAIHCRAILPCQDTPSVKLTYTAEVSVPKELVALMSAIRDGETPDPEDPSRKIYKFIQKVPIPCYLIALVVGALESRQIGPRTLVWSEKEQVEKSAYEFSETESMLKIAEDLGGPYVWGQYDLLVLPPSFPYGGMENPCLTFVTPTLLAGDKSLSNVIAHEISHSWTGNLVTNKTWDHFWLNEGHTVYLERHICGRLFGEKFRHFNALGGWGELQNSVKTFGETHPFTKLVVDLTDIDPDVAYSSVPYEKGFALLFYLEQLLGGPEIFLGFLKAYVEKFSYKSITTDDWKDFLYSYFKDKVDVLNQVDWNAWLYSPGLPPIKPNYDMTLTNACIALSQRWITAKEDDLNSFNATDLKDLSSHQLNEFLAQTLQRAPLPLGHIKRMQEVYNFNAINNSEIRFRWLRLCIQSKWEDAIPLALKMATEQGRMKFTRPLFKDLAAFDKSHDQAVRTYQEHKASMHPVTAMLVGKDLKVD
Procedure: The compounds of the invention are assessed for the ability to interact with human LTA4 hydrolase in an enzymatic assay that measures the ability of the enzyme to cleave the peptide bond of arginyl-aminomethylcoumarin (Arg-AMC). LTA4H Enzyme (1 nM final), Arg-AMC substrate (50 μM final), and compound are combined in a reaction buffer (50 mM Tris-HCl (pH 7.5), 100 mM KCl, 0.5% bovine serum albumin) at room temperature for 1 h. The formation of product is assessed by measuring the fluorescence of aminomethylcoumarin product (excitation wavelength 380 nm/emission wavelength 460 nm). In general, the preferred potency range (IC50) of compounds in the LTA4H Enzyme assay is between 0.1 nM to 10 μM, the more preferred potency range is 0.1 nM to 0.1 μM, and the most preferred potency range is 0.1 nM to 10 nM.

[1] = system: LTB4 synthesis in human whole blood; assay: human whole blood (HWB) assay, inhibition of LTB4 production; type: cell-based; settings: heparinized human whole blood, calcimycin 20 μM stimulation, plasma LTB4
Procedure: The compounds of the invention are additionally tested in a human whole blood (HWB) assay to determine their ability to inhibit the synthesis of LTB4 in a cellular system. Compounds are combined with heparinized human whole blood and incubated for 15 minutes at 37° C. Calcimycin (20 μM final, prepared in phosphate-buffered saline, pH 7.4) is then added and the mixture is incubated for another 30 minutes at 37° C. The samples are centrifuged for 5 min at low speed (1500×g) and the plasma layer is removed. Plasma LTB4 concentrations are then measured using an antibody-based homogenous time-resolved fluorescence method (CisBio, Bedford, Mass.). In general, the preferred potency range (IC50) of compounds in the HWB assay is between 10 nM to 10 μM, the more preferred potency range is 10 nM to 1 μM, and the most preferred potency range is 10 nM to 100 nM.

Structure (SMILES)	IC50 (human LTA4 hydrolase) [nM]	IC50 [1] [nM]
COCC(=O)N1CCN(Cc2ccc3cc(Oc4ccc(-c5ccn[nH]5)cn4)ccc3n2)CC1 [Example 28, 2-methoxy-1-(4-{6-[5-(2H-pyrazol-3-yl)-pyridin-2-yloxy]-quinolin-2-ylmethyl}-piperazin-1-yl)-ethanone]	0.87	150
OC1CN(Cc2ccc3c(ccn3Cc3ccc(-c4ccn[nH]4)cc3)c2)C1 [Example 216, 1-{1-[4-(2H-Pyrazol-3-yl)-benzyl]-1H-indol-5-ylmethyl}-azetidin-3-ol]	0.2	110
NC(=O)C1CCN(CC2Cc3ccc(Oc4ccc(-c5ccn[nH]5)cc4)cc3O2)CC1 (stereo not shown) [Example 144, 1-{6-[4-(2H-Pyrazol-3-yl)-phenoxy]-2,3-dihydro-benzofuran-2-ylmethyl}-piperidine-4-carboxylic acid amide]	0.64	260
O=C1OCCN1C1CCN(CCc2coc3cc(Oc4ccc(-c5ccn[nH]5)cn4)ccc23)CC1 [Example 130, 3-[1-(2-{6-[5-(2H-Pyrazol-3-yl)-pyridin-2-yloxy]-benzofuran-3-yl}-ethyl)-piperidin-4-yl]-oxazolidin-2-one]	0.26	99
CC(C)(O)CNC(=O)[C@H]1[C@@H]2CN(Cc3ccc4cc(Oc5ccc(-c6ccn[nH]6)cn5)ccc4n3)C[C@@H]21 [Example 40, (1α,5α,6α)-3-{6-[5-(2H-Pyrazol-3-yl)-pyridin-2-yloxy]-quinolin-2-ylmethyl}-3-aza-bicyclo[3.1.0]hexane-6-carboxylic acid (2-hydroxy-2-methyl-propyl)-amide]	0.47	300
NC(=O)N1CCN(Cc2ccc3cc(Oc4ccc(-c5ccn[nH]5)cn4)ccc3n2)CC1 [Example 43, 4-{6-[5-(2H-Pyrazol-3-yl)-pyridin-2-yloxy]-quinolin-2-ylmethyl}-piperazine-1-carboxylic acid amide]	3.9	380
N#CCC(=O)N1CCN(Cc2ccc3cc(Oc4ccc(-c5ccn[nH]5)cn4)ccc3n2)CC1 [Example 31, 3-Oxa-3-(4-{6-[5-(2H-pyrazol-3-yl)-pyridin-2-yloxy]-quinolin-2-ylmethyl}-piperazin-1-yl)-propionitrile]	1	200
CC(=O)N1CCN(CCc2ccc3cc(Oc4ccc(-c5ccn[nH]5)cn4)ccc3n2)CC1 [Example 108, 1-[4-(2-{6-[5-(2H-pyrazol-3-yl)-pyridin-2-yloxy]-quinolin-2-yl}-ethyl)-piperazin-1-yl]-ethanone]	0.54	230
CC(=O)N1CCN(Cc2coc3cc(Oc4ccc(-c5ccn[nH]5)cn4)ccc23)CC1 [Example 149, 1-(4-{6-[5-(2H-Pyrazol-3-yl)-pyridin-2-yloxy]-benzofuran-3-ylmethyl}-piperazin-1-yl)-ethanone]	1.2	250
CC(=O)N1CC2CCC1CN2Cc1ccc2cc(Oc3ccc(-c4ccn[nH]4)cn3)ccc2n1 (stereo not shown) [Example 148, 1-(5-{6-[5-(2H-Pyrazol-3-yl)-pyridin-2-yloxy]-quinolin-2-ylmethyl}-2,5-diaza-bicyclo[2.2.2]oct-2-yl)-ethanone]	0.46	150
CC(=O)N1CCN(CCC2COc3cc(Oc4ccc(-c5ccn[nH]5)cn4)ccc32)CC1 (stereo not shown) [Example 143, 1-[4-(2-{6-[5-(2H-Pyrazol-3-yl)-pyridin-2-yloxy]-2,3-dihydro-benzofuran-3-yl}-ethyl)-piperazin-1-yl]-ethanone]	0.85	230
CN(C(=O)CO)C1CCN(Cc2ccc3cc(Oc4ccc(-c5ccn[nH]5)cn4)ccc3n2)CC1 [Example 33, 2-Hydroxy-N-methyl-N-(1-{6-[5-(2H-pyrazol-3-yl)-pyridin-2-yloxy]-quinolin-2-ylmethyl}-piperidin-4-yl)-acetamide]	0.77	230
CS(=O)(=O)CC(=O)N1CCN(Cc2ccc3cc(Oc4ccc(-c5ccn[nH]5)cn4)ccc3n2)CC1 [Example 39, 2-Methanesulfonyl-1-(4-{6-[5-(2H-pyrazol-3-yl)-pyridin-2-yloxy]-quinolin-2-ylmethyl}-piperazin-1-yl)-ethanone]	2	280
O=C1CCC2CN(Cc3ccc4cc(Oc5ccc(-c6ccn[nH]6)cn5)ccc4n3)CCN12 (stereo not shown) [Example 18, 2-{6-[5-(2H-pyrazol-3-yl)-pyridin-2-yloxy]-quinolin-2-ylmethyl}-hexahydro-pyrrolo[1,2-a]pyrazin-6-one]	2	580

The next lines start with the values.

IC50 (human LTA4 hydrolase) [nM]	IC50 [1] [nM]	Structure (SMILES)
0.13	120	c1cc(-c2ccc(Oc3ccc4[nH]c(CN5C[C@@H]6CC[C@@H](C5)O6)nc4c3)cc2)[nH]n1 [Example 58, (1S,5S)-3-{5-[4-(2H-Pyrazol-3-yl)-phenoxy]-1H-benzoimidazol-2-ylmethyl}-8-oxa-3-aza-bicyclo[3.2.1]octane]
0.32	200	c1cc(-c2ccc(Oc3ccc4[nH]c(CC5CCOCC5)nc4c3)cc2)[nH]n1 [Example 202, 5-[4-(2H-Pyrazol-3-yl)-phenoxy]-2-(tetrahydro-pyran-4-ylmethyl)-1H-benzoimidazole]
0.14	180	CC(C)N1CCN(Cc2nc3cc(Oc4ccc(-c5ccn[nH]5)cc4)ccc3[nH]2)CC1 [Example 64, 2-(4-Isopropyl-piperazin-1-ylmethyl)-5-[4-(2H-pyrazol-3-yl)-phenoxy]-1H-benzoimidazole]
5.7	800	C[C@@H](NCc1ccc2cc(Oc3ccc(-c4ccn[nH]4)cn3)ccc2n1)C(N)=O [Example 34, (R)-2-({6-[5-(2H-Pyrazol-3-yl)-pyridin-2-yloxy]-quinolin-2-ylmethyl}-amino)-propionamide]
0.075	120	C[C@@H]1CCCCN1Cc1nc2cc(Oc3ccc(-c4ccn[nH]4)cc3)ccc2[nH]1 [Example 165, 2-((R)-2-Methyl-piperidin-1-ylmethyl)-5-[4-(2H-pyrazol-3-yl)-phenoxy]-1H-benzoimidazole]
0.22	110	CC(=O)NC1CCN(CC2Cc3ccc(Oc4ccc(-c5ccn[nH]5)cc4)cc3O2)CC1 (stereo not shown) [Example 219, N-(1-[6-[4-(2H-Pyrazol-3-yl)-phenoxy]-2,3-dihydro-benzofuran-2-ylmethyl]-piperidin-4-yl)-acetamide]
0.14	320	c1cc(-c2ccc(Oc3ccc4[nH]c(CN5CC6(COC6)C5)nc4c3)cc2)[nH]n1 [Example 72, 2-(2-Oxa-6-aza-spiro[3.3]hept-6-ylmethyl)-5-[4-(2H-pyrazol-3-yl)-phenoxy]-1H-benzoimidazole]
0.18	180	c1cc(-c2ccc(Oc3ccc4[nH]c(CN[C@H]5CCOC5)nc4c3)cc2)[nH]n1 [Example 194, {5-[4-(2H-Pyrazol-3-yl)-phenoxy]-1H-benzoimidazol-2-ylmethyl}-(S)-tetrahydro-furan-3-yl-amine]
0.23	160	COC[C@H](C)NCc1nc2cc(Oc3ccc(-c4ccn[nH]4)cc3)ccc2[nH]1 [Example 189, ((S)-2-Methoxy-1-methyl-ethyl)-{5-[4-(2H-pyrazol-3-yl)-phenoxy]-1H-benzoimidazol-2-ylmethyl}-amine]
0.17	180	c1cc(-c2ccc(Oc3ccc4nc(CN5CCCC5)cn4c3)cc2)[nH]n1 [Example 246, 6-[4-(2H-Pyrazol-3-yl)-phenoxy]-2-pyrrolidin-1-ylmethyl-imidazo[1,2-a]pyridine]
0.87	220	O=C1CC[C@@H](Cn2cc3cc(Oc4ccc(-c5ccn[nH]5)cc4)ccc3n2)N1 [Example 251, (S)-5-{5-[4-(2H-Pyrazol-3-yl)-phenoxy]-indazol-2-ylmethyl}-pyrrolidin-2-one]
0.27	190	CC[C@H](C)N(Cc1nc2cc(Oc3ccc(-c4ccn[nH]4)cc3)ccc2[nH]1)C(C)=O [Example 103, N—((S)-sec-butyl)-N-{5-[4-(2H-pyrazol-3-yl)-phenoxy]-1H-benzoimidazol-2-ylmethyl}-acetamide]
